Here are results for 59 compounds from the METLIN SMRT retention time set (Domingo-Almenara et al. 2019).

The series can be described thus: gradient 5% acetonitrile 3 min, to 50% in 2 min, to 85% in 15 min, held 3 min, 100 µL/min. The conditions noted are these: column: Zorbax Extend-C18 2.1 x 50 mm; eluents: water / acetonitrile, 0.1% formic acid. The gist of the method: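 Retention times of pure standards were taken from adduct peaks that were selected by computer and manually inspected. Over 3 months, mixtures of ~100 molecules were run by HPLC–quadrupole time-of-flight mass spectrometry in positive and negative ionization mode. The Zorbax Extend-C18 column (2.1 × 50 mm, 1.8 μm) ran at 100 μL/min in water and acetonitrile, each containing 0.1% formic acid, with 40 μL dead volume and 900 μL dwell volume.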
Take `Cc1ccc(NC(=O)Cn2nc(N3CCCC(C)C3)c3ccccc3c2=O)c(C)c1` (centres undefined): the RP-LC retention time worked out at 1150 s.

On to `COCCNC(=O)c1nnc(-c2ccc(S(=O)(=O)N3CCOCC3)cc2)o1`, for which the RP-LC retention time was found to be 668 s. `CCN(CC)CCNC(=O)c1sc2ncn(CC(=O)N3CC(C)CC(C)C3)c(=O)c2c1C` (centres undefined): the RP-LC retention time is 658 s.

In turn, `O=C(CC1OC(=O)c2ccccc21)c1ccc(Br)cc1` (centres undefined) registered an RP-LC retention time of 905 s. In turn, `COC(=O)c1ccc2c(=O)n(-c3cccc(OC)c3)c(N3CCSC3)nc2c1` had an RP-LC retention time of 1020 s. With `O=C(Cn1cnc2ccccc2c1=O)N[C@H](C(=O)O)c1ccccc1`, the RP-LC retention time amounted to 642 s. For the compound `CCOc1ccc(CNC(=O)c2cn3c(n2)COCC3)cc1`, the RP-LC retention time came to 614 s. Regarding `Cc1ccn2cc(C(=O)NCCc3ccc(S(N)(=O)=O)cc3)nc2c1`, the RP-LC retention time came out at 551 s. `Cn1cc(CC(=O)N2CCN(c3ccccc3F)CC2)c2ccccc21`: the RP-LC retention time came to 915 s. For `CCOc1ccccc1NC(=O)N1CCC2(CC1)NC(=O)c1ccc(Cl)cc1N2CC`, the RP-LC retention time turned out to be 955 s. The value for `Cc1cc2c(=O)n(CC(=O)NCc3ccccc3Cl)c3cccnc3n2n1` was 729 s. The value for `CCC(C)C(NC(=O)c1ccc(F)c(Cl)c1)C(=O)Nc1nc2ccccc2[nH]1` (centres undefined) was 817 s; that for `O=C(Nc1ccc2c(c1)OCO2)N1CCC(n2c(-c3ccco3)nc3cccnc32)C1` (centres undefined) was 726 s.

`O=C(NCCCN1CCCC1)C1CCN(c2nnc3ccc(Cl)cn23)CC1` returned an RP-LC retention time of 556 s. As for `O=C(c1ccc(=O)n(CCN2CCCC2)c1)N1CCN(c2ccccc2F)CC1`, the figure is 619 s; as for `CCOc1ccc(NC(=O)c2cnn(-c3ccc(Br)cc3)c2)cc1`, 1030 s. As for `CCOC(=O)c1ccccc1NC(=O)N(CC)Cc1cc(=O)[nH]c2ccccc12`, the figure is 907 s; as for `CCOC(=O)[C@H]1O[C@@H]1C(=O)N[C@@H](CC(C)C)C(=O)NCCC(C)C`, 992 s.

The compound `O=C(Cc1ccccc1F)Nc1cnc(-c2cccnc2)nc1` gave an RP-LC retention time of 652 s.

In the case of `Cn1c(=O)c2c(Nc3ccc(C(F)(F)F)cc3)ccnc2n(C)c1=O`, the RP-LC retention time was 1010 s.

On to `CCCNc1cc(N2CCCC(CCC(=O)NCCOC)C2)ncn1` (centres undefined), for which the RP-LC retention time came out at 592 s. In turn, `CNC(=O)[C@@H]1C[C@H](Oc2ccccc2)CN1C(=O)CCCc1c[nH]c2ccccc12` showed an RP-LC retention time of 800 s. In the case of `CCOc1ccc(NS(=O)(=O)c2ccc3c(c2)C(=O)N(C)c2ncccc2O3)cc1`, the RP-LC retention time turned out to be 907 s. Compound `CC(C)N1C(=O)C2(CCCC2)C1C(=O)N1CCc2ccccc21` (centres undefined) displayed an RP-LC retention time of 780 s.

`Cc1ccc(CNC(=O)C2(C)CN(S(C)(=O)=O)CC(=O)N2Cc2ccc(Cl)cc2)cc1` (centres undefined): the RP-LC retention time is 906 s. As for `O=C(c1ccco1)N1CCCC1c1nc(-c2ccc(F)cc2F)no1` (centres undefined), the RP-LC retention time worked out at 860 s. As for `Cc1ccc(CNc2nnc(-c3nc(C4CC4)no3)c3ccccc23)cc1`, the figure is 958 s; as for `O=C(NC1CCN(c2cc(-c3ccc(F)cc3)[nH]n2)C1)c1cccc(F)c1` (centres undefined), 735 s; as for `Cc1cc2nn(CC(=O)Nc3ccc(C)c(F)c3)c(=O)n2c(N2CCCC2)n1`, 805 s. `COc1cccc(-c2ccc(=O)n(CCc3nc(-c4ccc(F)cc4)no3)n2)c1` registered an RP-LC retention time of 981 s. In turn, `Cc1nnc(N2CCCC(C(=O)NCCc3ccc(Cl)cc3)C2)c2nn(-c3ccccc3)c(C)c12` (centres undefined) showed an RP-LC retention time of 784 s.

Take `CCCn1c(=O)sc2cc(S(=O)(=O)N3CCC(C(=O)N4CCC(C)CC4)CC3)ccc21`: the RP-LC retention time was found to be 994 s. With `Cc1cc(N2CCN(C)CC2)nc2ccc(NC(=S)NCc3ccc(F)cc3Cl)cc12`, the RP-LC retention time was found to be 612 s. For `COc1cccc(-c2noc(CCn3nc(-c4ccc5c(c4)OCO5)ccc3=O)n2)c1OC`, the RP-LC retention time is 852 s. Turning to `CC1(C(=O)NC2CCCCC2)CN(S(=O)(=O)c2ccccc2)CC(=O)N1c1ccccc1F` (centres undefined), the RP-LC retention time came to 932 s.

`Cc1cc(C)cc(C(=O)NCc2ccc3c(c2)nnn3C)c1` gave an RP-LC retention time of 755 s.

Regarding `CCN1C(=O)c2cccnc2Sc2cc(CNC(=O)c3cccn3C)ccc21`, the RP-LC retention time is 747 s. The value for `Cc1cc(C)n2c(Nc3ccccc3)c(-c3cccc(Cl)c3)nc2n1` was 1130 s; that for `CCOc1ccc2nc(C(=O)NCc3ccccc3Br)cn2n1` was 947 s; that for `CCN1C(=O)c2cccc3c(NC(=O)c4c(F)cccc4F)ccc1c23` was 739 s. As for `CCn1nc(C)c(CCNC(=O)c2cc3c(=O)n(Cc4ccco4)ccc3nc2C)c1C`, the figure is 610 s; as for `Cc1ccc(C)c(NC(=O)Cn2nc3c(Oc4ccccc4C)nccn3c2=O)c1`, 908 s. Turning to `O=C(NCc1csc(-c2ccccc2)n1)C1CCN(S(=O)(=O)c2cccc(F)c2)CC1`, the RP-LC retention time amounted to 912 s. On to `COc1ccc(-c2csc(NC(=O)Cn3c(=O)oc4ccccc43)n2)cc1`, for which the RP-LC retention time was 933 s. On to `CN(C)C(=O)c1cc2sc(Cl)cc2n1C`, for which the RP-LC retention time came to 837 s. Take `N#Cc1nc(-c2cccs2)oc1N1CCN(C(=O)c2ccco2)CC1`: the RP-LC retention time stood at 789 s. As to `Cc1cc(C)cc(NC(=O)Cn2c(C(C)C)nc3c(c2=O)CCN(Cc2ccccc2)C3)c1`, the RP-LC retention time was 759 s.

With `O=C(CCn1nnc2cc(-c3noc(C4(c5ccccc5)CC4)n3)ccc21)N1CCCC1`, the RP-LC retention time is 958 s.

Regarding `CCCCOC(=O)c1ccc(Nc2nc(C(=O)OCC)nc3ccccc23)cc1`, the RP-LC retention time was determined as 1070 s. In turn, `CCC(CC)C(=O)N(C)CCc1noc(-c2ccc(C(=O)N3CCCC3)cc2)n1` registered an RP-LC retention time of 796 s. `Cc1cc(-c2nnc(-c3ccc(F)cc3)o2)c(C)n1CC(=O)Nc1ccc(F)cc1` gave an RP-LC retention time of 964 s.

Take `Cc1sc(NC(=O)c2cccs2)nc1-c1ccc2c(c1)NC(=O)C(C)O2` (centres undefined): the RP-LC retention time was 883 s. As for `OC(c1ccccc1)(c1ccccc1)c1nccn1-c1ccccc1`, the figure is 754 s. With `CC1=C(c2ccccc2)S(=O)(=O)N=C1N1CCCN(C(=O)C2CC2)CC1`, the RP-LC retention time was 991 s. Take `O=C(NCCc1ccsc1)Nc1ccccc1C(F)(F)F`: the RP-LC retention time was 842 s.

`Cc1ccc(NC(=O)N2CCC(n3cnc4cc(F)ccc4c3=O)CC2)cc1F` registered an RP-LC retention time of 832 s. The compound `CC1(C)Cc2cccc(OCC(=O)Nc3cccc(-c4ccn[nH]4)c3)c2O1` showed an RP-LC retention time of 775 s. With `COc1cc(C(=O)Nc2nnc(SCc3nnc(-c4ccccc4)o3)s2)cc(OC)c1OC`, the RP-LC retention time is 871 s.

For `CCCN(C)c1nccn2c(=O)n(CC(=O)Nc3ccc4c(c3)OCCO4)nc12`, the RP-LC retention time was 642 s.
